ChEMBL document CHEMBL4419169, “Novel Ferroportin Inhibitors” (2018)

Legend:
Format in all cases: cell-based
Ferroportin [1] = target: T1, Ferroportin (Homo sapiens, UniProt Q9NP59); test: Inhibition of GFP-tagged human ferroportin expressed in HEK293 #354 cells assessed as reduction in Fpn-mediated iron efflux incubated overnight by iron regulatory element -driven beta-lactamase reporter gene assay
T1 sequence (Q9NP59 whole entry): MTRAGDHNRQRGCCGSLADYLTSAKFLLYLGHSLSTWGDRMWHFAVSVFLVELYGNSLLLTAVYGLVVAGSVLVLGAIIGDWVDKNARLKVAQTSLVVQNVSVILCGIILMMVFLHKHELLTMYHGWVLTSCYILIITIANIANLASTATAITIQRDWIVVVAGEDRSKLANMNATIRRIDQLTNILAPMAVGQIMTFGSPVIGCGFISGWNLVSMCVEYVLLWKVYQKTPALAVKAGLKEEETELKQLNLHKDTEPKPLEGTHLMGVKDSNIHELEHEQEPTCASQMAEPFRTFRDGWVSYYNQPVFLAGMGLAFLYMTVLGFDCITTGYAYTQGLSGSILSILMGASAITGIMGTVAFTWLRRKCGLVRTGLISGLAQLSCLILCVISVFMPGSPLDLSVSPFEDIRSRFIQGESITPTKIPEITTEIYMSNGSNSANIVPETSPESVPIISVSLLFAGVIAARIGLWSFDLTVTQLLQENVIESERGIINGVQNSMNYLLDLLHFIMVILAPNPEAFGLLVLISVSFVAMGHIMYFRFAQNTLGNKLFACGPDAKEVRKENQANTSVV

Ferroportin [2] = target: T2, Ferroportin (Mus musculus, UniProt Q9JHI9); test: Inhibition of ferroportin in mouse J774 cells assessed as reduction in binding of hepcidin to ferroportin pre-incubated for 15 mins before TMR-hepcidin addition and further incubated for 2 hrs by fluorescence based hepcidin internalization assay
T2 sequence (Q9JHI9 whole entry): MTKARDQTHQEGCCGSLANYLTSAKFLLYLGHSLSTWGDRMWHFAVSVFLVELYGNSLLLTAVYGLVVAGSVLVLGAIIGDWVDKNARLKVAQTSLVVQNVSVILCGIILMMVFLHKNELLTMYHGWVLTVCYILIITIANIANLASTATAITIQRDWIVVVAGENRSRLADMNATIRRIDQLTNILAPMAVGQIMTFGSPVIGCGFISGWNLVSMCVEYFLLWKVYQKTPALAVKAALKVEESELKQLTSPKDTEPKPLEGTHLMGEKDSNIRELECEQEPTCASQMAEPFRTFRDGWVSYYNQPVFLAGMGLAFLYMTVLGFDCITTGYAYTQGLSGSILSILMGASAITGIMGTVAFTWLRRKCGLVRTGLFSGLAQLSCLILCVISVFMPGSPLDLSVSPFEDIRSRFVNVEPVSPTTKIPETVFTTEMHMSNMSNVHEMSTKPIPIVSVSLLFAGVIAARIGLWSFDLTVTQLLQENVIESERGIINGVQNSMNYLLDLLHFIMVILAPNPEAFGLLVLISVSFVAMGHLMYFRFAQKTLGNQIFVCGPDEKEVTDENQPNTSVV

Ferroportin [3] = target: T1, Ferroportin; test: Inhibition of GFP-tagged human ferroportin expressed in HEK293 #354 cells assessed as induction of ferroportin internalization and degradation incubated overnight by FACS assay; conditions: read-out: EC50 (the source's name)

For `O=C(NCc1ncccc1F)c1cn(CCNCCc2nc3ccccc3[nH]2)nn1`, the EC50 (Ferroportin [1]) was 170 nM, the IC50 (Ferroportin [2]) was 11 nM and the DC50 (Ferroportin [3]) was 69 nM.
